According to US20140329870A1, “COMPOSITIONS COMPRISING ISOSORBIDE MONOESTERS AND ISOTHIAZOLINONES” (CLARIANT INTERNATIONAL LTD., priority 2011, published 2014):
In brackets after ≈: the same amount, converted by molar mass. Where two headings read alike, the source gives them in different places.

Legend:
[1] = test system: bacteria, fungi and yeasts; details: general statement, no test data given, cited from earlier work
[2] = test system: bacteria, fungi and yeasts; assay: Antimicrobial activity, overall statements on the test series; format: cell-based
Procedure: (§1) Below, the antimicrobial efficacy of a composition according to the invention consisting of 50% by weight of isorbide caprylate 1 and 50% by weight of a 2% by weight strength solution of methylisothiazolinone in water against bacteria, fungi and yeasts is examined (hereinbelow, the composition is referred to as “composition A”). For the tests with bacteria, composition A was diluted with butyl polyglycol and then, at 50° C., added to liquid CASO agar (casein-peptone agar) buffered to pH 7 (+/−0.2) in various concentrations (hereinbelow referred to as compositions B1, B2, etc.). For the tests with fungi and yeasts, composition A was diluted with butyl polyglycol and then added to liquid Sabouraud 4% dextrose agar buffered to pH 5.6 (+/−0.2) in various concentrations (hereinbelow referred to as compositions PH1, PH2, etc.). The compositions B1, B2, etc. and PH1, PH2 etc. were each poured into Petri dishes and each inoculated with identical amounts of bacteria, fungi and yeasts. The minimum inhibitory concentration (MIC) is the concentration at which inhibition of the growth of the bacteria, fungi and yeasts in the compositions B1, B2, etc. and PH1, PH2, etc. occurs.
(§2) The minimum inhibitory concentrations for the pure substances isosorbide caprylate 1 and methylisothiazolinone were determined analogously.
(§3) Kull et al., Applied Microbiology 1961, 9, 538 using the formula below: […]

Proteus vulgaris = assay: Minimum inhibitory concentration (MIC) in agar, antimicrobial efficacy; format: cell-based; details: CASO agar pH 7
Procedure: as §1, §2
(§4) The values determined for the minimum inhibitory concentrations “MIC mixture”, stated in Table 1 below, are based on the concentrations of composition A.
(§5) The values determined for the minimum inhibitory concentrations “QA” and “QB”, stated in Table 1 below, have already been corrected for the dilution effect of the water and the butyl polyglycol.
as §3
(§6) where • Qa is the minimum inhibitory concentration of isosorbide caprylate 1 in the mixture employed, • QA is the minimum inhibitory concentration of isosorbide caprylate 1, • Qb is the minimum inhibitory concentration of methylisothiazolinone in the mixture employed and • QB is the minimum inhibitory concentration of methylisothiazolinone.
(§7) The values for Qa and Qb are determined from the values for the mixtures (“MIC mixture”) by multiplying the minimum inhibitory concentrations determined for Qa with the factor 0.5 and for Qb with the factor 0.01, because of the proportions of the ingredients—50% by weight of isosorbide caprylate 1 and 50% by weight of a 2% by weight strength solution of methylisothiazolinone in water—in composition A according to the invention examined.
(§8) If an SE value >1 is obtained, an antagonistic effect is present.

Aspergillus terreus = assay: as above; format: cell-based; details: Sabouraud 4% dextrose agar pH 5.6
Procedure: as §1, §2, §4, §5, §3, §6, §7, §8

Citrobacter freundii = assay: as above; format: cell-based; details: CASO agar pH 7
Procedure: as §1, §2, §4, §5, §3, §6, §7, §8

Penicillium funicolosium = assay: as above; format: cell-based; details: Sabouraud 4% dextrose agar pH 5.6
Procedure: as §1, §2, §4, §5, §3, §6, §7, §8

Pseudomonas aeruginosa = assay: as above; format: cell-based; details: CASO agar pH 7
Procedure: as §1, §2, §4, §5, §3, §6, §7, §8

Klebsiella pneumoniae = assay: as above; format: cell-based; details: CASO agar pH 7
Procedure: as §1, §2, §4, §5, §3, §6, §7, §8

Penicillium minioluteum = assay: as above; format: cell-based; details: Sabouraud 4% dextrose agar pH 5.6
Procedure: as §1, §2, §4, §5, §3, §6, §7, §8

Candida albicans = assay: as above; format: cell-based; details: Sabouraud 4% dextrose agar pH 5.6
Procedure: as §1, §2, §4, §5, §3, §6, §7, §8

Enterobacter aerogenes = assay: as above; format: cell-based; details: CASO agar pH 7
Procedure: as §1, §2, §4, §5, §3, §6, §7, §8

Fusarium solani = assay: as above; format: cell-based; details: Sabouraud 4% dextrose agar pH 5.6
Procedure: as §1, §2, §4, §5, §3, §6, §7, §8

Escherichia coli = assay: as above; format: cell-based; details: CASO agar pH 7
Procedure: as §1, §2, §4, §5, §3, §6, §7, §8

Pseudomonas oleovorans = assay: as above; format: cell-based; details: CASO agar pH 7
Procedure: as §1, §2, §4, §5, §3, §6, §7, §8

Aspergillus brasiliensis = assay: as above; format: cell-based; details: Sabouraud 4% dextrose agar pH 5.6
Procedure: as §1, §2, §4, §5, §3, §6, §7, §8

Staphylococcus aureus = assay: as above; format: cell-based; details: CASO agar pH 7
Procedure: as §1, §2, §4, §5, §3, §6, §7, §8

[3] = in composition A, MIC mixture x 0.01
[4] = pure substance, corrected for dilution

Which “antimicrobial activity (in words)” value ([1]; at a pH of 6 or above) does the source give for CCCCCCCC(=O)O [caprylic acid, octanoic acid] here?
Its value is “no antimicrobial activity”.

What about the “antimicrobial efficacy (in words)” value [1] of the same molecule?
The value was “antimicrobially effective”.

For O[C@@H]1CO[C@H]2[C@@H]1OC[C@@H]2O [isosorbide], which “antimicrobial activity (in words)” value ([2]; as shown by the results of Table 2) is on record?
The value was “neither isosorbide nor isosorbide dicaprylate are antimicrobially active”.

What about the MIC (Proteus vulgaris; Proteus vulgaris, Table 2) of the same molecule?
The MIC was 10000 µg/mL (≈ 68.4 mM).

And the MIC (Aspergillus terreus; Aspergillus terreus, Table 2)?
The MIC was 10000 µg/mL (≈ 68.4 mM).

And the MIC (Citrobacter freundii; Citrobacter freundii, Table 2)?
The MIC was 10000 µg/mL (≈ 68.4 mM).

And the MIC (Penicillium funicolosium; Penicillium, Table 2)?
Its MIC is 10000 µg/mL (≈ 68.4 mM).

And the MIC (Pseudomonas aeruginosa; Pseudomonas aeruginosa, Table 2)?
Its MIC is 10000 µg/mL (≈ 68.4 mM).

What about the MIC (Klebsiella pneumoniae; Klebsiella pneumoniae, Table 2) of the same molecule?
Its MIC is 10000 µg/mL (≈ 68.4 mM).

And the MIC (Penicillium minioluteum; Talaromyces minioluteus, Table 2)?
Its MIC is 10000 µg/mL (≈ 68.4 mM).

And the MIC (Candida albicans; Candida albicans, Table 2)?
Its MIC is 10000 µg/mL (≈ 68.4 mM).

And the MIC (Enterobacter aerogenes; Klebsiella aerogenes, Table 2)?
The MIC was 10000 µg/mL (≈ 68.4 mM).

What about the MIC (Fusarium solani; Fusarium solani, Table 2) of the same molecule?
Its MIC is 10000 µg/mL (≈ 68.4 mM).

And the MIC (Escherichia coli; Escherichia coli, Table 2)?
The MIC was 10000 µg/mL (≈ 68.4 mM).

What about the MIC (Pseudomonas oleovorans; Ectopseudomonas oleovorans, Table 2) of the same molecule?
Its MIC is 10000 µg/mL (≈ 68.4 mM).

What about the MIC (Aspergillus brasiliensis; Aspergillus brasiliensis, Table 2) of the same molecule?
Its MIC is 10000 µg/mL (≈ 68.4 mM).

And the MIC (Staphylococcus aureus; Staphylococcus aureus, Table 2)?
The MIC was 10000 µg/mL (≈ 68.4 mM).

For Cn1sccc1=O [methylisothiazolinone], which “Qb, calc. (MIC of methylisothiazolinone in the mixture employed)” value (Proteus vulgaris; [3]) is on record?
The value was 5 ppm.

What about the “QB, meas. (MIC of methylisothiazolinone)” value (Proteus vulgaris; [4]) of the same molecule?
The value was 5 ppm.

And the “Qb, calc. (MIC of methylisothiazolinone in the mixture employed)” value (Aspergillus terreus; [3])?
Its value is 7.5 ppm.

And the “QB, meas. (MIC of methylisothiazolinone)” value (Aspergillus terreus; [4])?
Its value is 100 ppm.

And the “Qb, calc. (MIC of methylisothiazolinone in the mixture employed)” value (Citrobacter freundii; [3])?
The value was 10 ppm.

And the “QB, meas. (MIC of methylisothiazolinone)” value (Citrobacter freundii; [4])?
Its value is 15 ppm.

And the “Qb, calc. (MIC of methylisothiazolinone in the mixture employed)” value (Penicillium funicolosium; [3])?
The value was 7.5 ppm.

What about the “QB, meas. (MIC of methylisothiazolinone)” value (Penicillium funicolosium; [4]) of the same molecule?
The value was 100 ppm.

And the “Qb, calc. (MIC of methylisothiazolinone in the mixture employed)” value (Pseudomonas aeruginosa; [3])?
The value was 20 ppm.

What about the “QB, meas. (MIC of methylisothiazolinone)” value (Pseudomonas aeruginosa; [4]) of the same molecule?
Its value is 40 ppm.

What about the “Qb, calc. (MIC of methylisothiazolinone in the mixture employed)” value (Klebsiella pneumoniae; [3]) of the same molecule?
The value was 15 ppm.

What about the “QB, meas. (MIC of methylisothiazolinone)” value (Klebsiella pneumoniae; [4]) of the same molecule?
Its value is 15 ppm.

And the “Qb, calc. (MIC of methylisothiazolinone in the mixture employed)” value (Penicillium minioluteum; [3])?
The value was 7.5 ppm.

And the “QB, meas. (MIC of methylisothiazolinone)” value (Penicillium minioluteum; [4])?
The value was 100 ppm.

What about the “Qb, calc. (MIC of methylisothiazolinone in the mixture employed)” value (Candida albicans; [3]) of the same molecule?
Its value is 10 ppm.

And the “QB, meas. (MIC of methylisothiazolinone)” value (Candida albicans; [4])?
The value was 100 ppm.

What about the “Qb, calc. (MIC of methylisothiazolinone in the mixture employed)” value (Enterobacter aerogenes; [3]) of the same molecule?
The value was 15 ppm.

What about the “QB, meas. (MIC of methylisothiazolinone)” value (Enterobacter aerogenes; [4]) of the same molecule?
The value was 15 ppm.

And the “Qb, calc. (MIC of methylisothiazolinone in the mixture employed)” value (Fusarium solani; [3])?
The value was 7.5 ppm.

And the “QB, meas. (MIC of methylisothiazolinone)” value (Fusarium solani; [4])?
Its value is 100 ppm.

What about the “Qb, calc. (MIC of methylisothiazolinone in the mixture employed)” value (Escherichia coli; [3]) of the same molecule?
Its value is 10 ppm.

What about the “QB, meas. (MIC of methylisothiazolinone)” value (Escherichia coli; [4]) of the same molecule?
Its value is 10 ppm.

And the “Qb, calc. (MIC of methylisothiazolinone in the mixture employed)” value (Pseudomonas oleovorans; [3])?
The value was 5 ppm.

What about the “QB, meas. (MIC of methylisothiazolinone)” value (Pseudomonas oleovorans; [4]) of the same molecule?
The value was 5 ppm.

And the “Qb, calc. (MIC of methylisothiazolinone in the mixture employed)” value (Aspergillus brasiliensis; [3])?
The value was 10 ppm.

What about the “QB, meas. (MIC of methylisothiazolinone)” value (Aspergillus brasiliensis; [4]) of the same molecule?
Its value is 100 ppm.

And the “Qb, calc. (MIC of methylisothiazolinone in the mixture employed)” value (Staphylococcus aureus; [3])?
Its value is 25 ppm.

And the “QB, meas. (MIC of methylisothiazolinone)” value (Staphylococcus aureus; [4])?
The value was 40 ppm.

Which “antimicrobial activity (in words)” value ([2]; concluded from Tables 1 and 2) does the source give for isosorbide monocaprylate here?
The value was “significant antimicrobial activity”.
